Data published in patent publication US20250129095A1, “ANNULATED 2-AMINO-3-CYANO THIOPHENES AND DERIVATIVES FOR THE TREATMENT OF CANCER” (Boehringer Ingelheim Int'l GmbH Corp., priority 2021, published 2025).

Legend:
KRAS (G12C)::SOS1 = target: T1, KRAS (G12C)::SOS1 (Homo sapiens, UniProt P01116, C118S/C51S/C80L/G12C); assay: KRAS::SOS1 AlphaScreen binding assay, KRAS G12C; conditions: read-out: KRASG12C IC50
T1 construct: KRAS (G12C) 1-169, N-terminal 6His-tag for purification, cleaved off; 6His-tag (N, cleaved yes); made in house
T1 sequence (P01116 1-169 isoform P01116-2 G12C/C51S/C80L/C118S): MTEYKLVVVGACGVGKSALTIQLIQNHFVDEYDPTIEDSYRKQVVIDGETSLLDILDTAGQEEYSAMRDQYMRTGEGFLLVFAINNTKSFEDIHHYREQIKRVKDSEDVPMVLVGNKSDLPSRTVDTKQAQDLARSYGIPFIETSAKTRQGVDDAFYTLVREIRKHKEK
Excerpt: This assay can be used to examine the potency with which compounds according to the invention binding to (mutated) KRAS inhibit the protein-protein interaction between SOS1 and (mutated) KRAS e.g., KRAS WT, KRAS G12C, KRAS G12D, KRAS G12V, KRAS G13D. […] Low IC50 values in this assay setting are indicative of strong inhibition of protein-protein interaction between SOS1 and KRAS:
These assays measure the inhibitory effect of compounds on KRAS mutant protein-protein interactions using the Alpha Screen technology by Perkin Elmer
The following (mutant) enzyme forms of KRAS and interacting proteins are used in these assays at the given concentrations: • KRAS (G12D) 1-169, N-terminal 6His-tag, C-terminal avi-tag (Xtal BioStructures, Inc.); final assay concentration 10 nM and SOS1 564-1049, N-terminal 229 GST-tag, TEV cleavage site (Viva Biotech Ltd); final assay concentration 5 nM; • KRAS (G12C) 1-169, N-terminal 6His-tag for purification, cleaved off, C-terminal avi-tag, biotinylated, mutations: C51S, C80L, C118S (in house); final assay concentration 7.5 nM and SOS1 564-1049, N-terminal 229 GST-tag, TEV cleavage site (Viva Biotech Ltd); final assay concentration 5 nM; • KRAS (G12V) 1-169, N-terminal 6His-tag for purification, cleaved off, C-terminal avi-tag, biotinylated, TEV cleavage site, mutation: C118S, GDP loaded (in house); final assay concentration 10 nM and SOS1 564-1049, N-terminal 229 GST-tag, TEV cleavage site (Viva Biotech Ltd); final assay concentration 10 nM; • KRAS (G13D) 1-169, N-terminal 6His-tag for purification, cleaved off, C-terminal avi-tag, biotinylated, TEV cleavage site, mutation: C118S, GDP loaded (in house); final assay concentration 10 nM and SOS1 564-1049, N-terminal 229 GST-tag, TEV cleavage site (Viva Biotech Ltd); final assay concentration 10 nM; • KRAS (WT) 1-169, N-terminal 6His-tag for purification, cleaved off, C-terminal avi-tag, biotinylated, TEV cleavage site, mutation: C118S, GDP loaded (in house); final assay concentration 10 nM and SOS1 564-1049, N-terminal 229 GST-tag, TEV cleavage site (Viva Biotech Ltd); final assay concentration 10 nM.
Test compounds dissolved in DMSO are dispensed onto assay plates (Proxiplate 384 PLUS, white, PerkinElmer; 6008289) using an Access Labcyte Workstation with the Labcyte Echo 55×. For the chosen highest assay concentration of 100 μM, 150 nL of compound solution are transferred from a 10 mM DMSO compound stock solution. A series of eleven fivefold dilutions per compound are transferred to the assay plate, compound dilutions are tested in duplicates. DMSO are added as backfill to a total volume of 150 nL.
The assays run on a fully automated robotic system in a darkened room below 100 Lux. To 150 nl of compound dilution 10 μl of a mix including KRAS mutant protein, SOS1 (final assay concentrations see above) and GDP nucleotide (Sigma G7127; final assay concentration 10 μM) in assay buffer (1×PBS, 0.1% BSA, 0.05% Tween 20) are added into columns 1-24.
After 30 minutes incubation time 5 μl of Alpha Screen bead mix in assay buffer are added into columns 1-23. Bead mix consists of AlphaLISA Glutathione Acceptor Beads (PerkinElmer, Cat No AL109) and AlphaScreen Streptavidin Donor Beads (PerkinElmer Cat No 6760002) in assay buffer at a final assay concentration of 10 μg/ml each.
Plates are kept at room temperature in a darkened incubator. After an additional 60 minutes incubation time the signal is measured in a PerkinElmer Envision HTS Multilabel Reader using the AlphaScreen specs from PerkinElmer.
Each plate contains up to 16 wells of a negative control depending on the dilution procedure (platewise or serial) (DMSO instead of test compound; with KRAS mutant::SOS1 GDP mix and bead mix; column 23) and 16wells of a positive control (DMSO instead of test compound; with KRAS mutant::SOS1 GDP mix w/o bead mix; column 24).
As internal control known inhibitors of KRAS mutant::SOS1 interaction can be measured on each compound plate. […]

SAS cells = assay: SAS CTG proliferation assay (120 h) (HNSCC, wt amplified); assay type: cell-based
Procedure: (§1) SAS cells (JCRB0260) are dispensed into 384-well plates, flat and clear bottom (Greiner, PNr. 781091) at a density of 300 cells per well in 60 μL DMEM:F12 (Gibco 31330-038)+10% Fetal Calf Serum (HyClone, PNr.: SH30084.03) and incubated at 37° C. in a CO2 incubator overnight The next day, compounds (10 mM stock in DMSO) are added with the ECHO acoustic liquid handler system (Beckman Coulter), including DMSO controls. Plates are incubated for 120 h, and cell viability is measured using CellTiter-Glo luminescent cell viability reagent (Promega product code G7570). Viability (stated as percent of control) is defined as relative luminescence units RLU of each well divided by the RLU of cells in DMSO controls.

SK-CO-1 cells = assay: SK-CO-1 CTG proliferation assay (120 h) (CRC, G12V); assay type: cell-based; conditions: Homo sapiens
Procedure: as §1, with “SK-CO-1 cells (ATCC” for “SAS cells (JCRB0260)”, “SK-CO-1 cells (ATCC HTB-39) are dispensed” for “SAS cells (JCRB0260) are dispensed”, “density of 500 cells per” for “density of 300 cells per”, “60 μL EMEM (Sigma M5650)+10% Fetal Calf” for “60 μL DMEM:F12 (Gibco 31330-038)+10% Fetal Calf”, “CO2 incubator overnight. The next” for “CO2 incubator overnight The next”

LOVO cells = assay: LOVO CTG proliferation assay (120 h) (CRC, G13D); assay type: cell-based; conditions: Homo sapiens
Procedure: LOVO cells (ATCC CCL-229) are dispensed into 384-well plates, flat and clear bottom (Greiner, PNr. 781091) at a density of 1000 cells per well in 60 μL DMEM (Sigma D6429)+10% Fetal Calf Serum (HyClone, PNr.: SH30084.03) and incubated at 37° C. in a CO2 incubator overnight. The next day, compounds (10 mM stock in DMSO) are added with the ECHO acoustic liquid handler system (Beckman Coulter), including DMSO controls. Plates are incubated for 120 h, and cell viability is measured using CellTiter-Glo luminescent cell viability reagent (Promega product code G7570). Viability (stated as percent of control) is defined as relative luminescence units RLU of each well divided by the RLU of cells in DMS0 controls. IC50 values are determined from viability measurements by non-linear regression using a four-parameter model.

Row | SMILES | IC50 (KRAS (G12C)::SOS1) [nM] | IC50 (SK-CO-1 cells) [nM] | IC50 (LOVO cells) [nM] | IC50 (SAS cells) [nM]
1 | C[C@H](Oc1cc(Nc2ccncn2)nc(-c2noc3c2CCC[C@@]32CCCc3sc(N)c(C#N)c32)n1)[C@@H]1CCCN1C [II-15] | 3 | 91 | 708 | 87
2 | C[C@H](Oc1cc(OCC2(N(C)C)COC2)nc(-c2onc3c2CCC[C@@]32CCCc3sc(N)c(C#N)c32)n1)[C@@H]1CCCN1C [Example I-8] | 2 | 401 | 27 | 51
3 | C[C@H](Oc1cc(Nc2cnccn2)nc(-c2noc3c2CCC[C@@]32CCCc3sc(N)c(C#N)c32)n1)[C@@H]1CCCN1C [II-14] | 3 | 115 | 960 | 285
4 | C[C@H](Oc1cc(NCC2COC2)nc(-c2noc3c2CCC[C@@]32CCCc3sc(N)c(C#N)c32)n1)[C@@H]1CCCN1C [II-11] | 2 | 46 | 568 | 21
5 | C[C@H](Oc1cc(Oc2cncnc2)nc(-c2noc3c2CCC[C@@]32CCCc3sc(N)c(C#N)c32)n1)[C@@H]1CCCN1C [II-1] | 1 | 18 | 433 | 20
6 | C[C@H](Oc1cc(Nc2ncccn2)nc(-c2noc3c2CCC[C@@]32CCCc3sc(N)c(C#N)c32)n1)[C@@H]1CCCN1C [II-17] | 2 | 60 | 297 | 104
7 | C[C@H](Oc1cc(N[C@H]2CCOC2)nc(-c2onc3c2CCC[C@@]32CCCc3sc(N)c(C#N)c32)n1)[C@@H]1CCCN1C [Example I-4] | 3 | 762 | 575 | 719
8 | C[C@H](Oc1cc(Nc2ncco2)nc(-c2noc3c2CCC[C@@]32CCCc3sc(N)c(C#N)c32)n1)[C@@H]1CCCN1C [II-13] | 2 | 69 | 500 | 46
9 | COC[C@H](C)Nc1cc(O[C@@H](C)[C@@H]2CCCN2C)nc(-c2onc3c2CCC[C@@]32CCCc3sc(N)c(C#N)c32)n1 [Example I-5] | 5 |  |  | 
10 | C[C@H](Oc1cc(Oc2ccon2)nc(-c2noc3c2CCC[C@@]32CCCc3sc(N)c(C#N)c32)n1)[C@@H]1CCCN1C [II-3] | 2 | 84 | 102 | 67
11 | C[C@H](Oc1cc(O[C@@H]2CNC2(C)C)nc(-c2noc3c2CCC[C@@]32CCCc3sc(N)c(C#N)c32)n1)[C@@H]1CCCN1C [II-9] | 2 | 171 | 99 | 179
12 | C[C@H](Oc1cc(Sc2ncccn2)nc(-c2onc3c2CCC[C@@]32CCCc3sc(N)c(C#N)c32)n1)[C@@H]1CCCN1C [Example I-7] | 5 | 796 | 3240 | 221
13 | C[C@H](Oc1cc(Nc2ccccn2)nc(-c2onc3c2CCC[C@@]32CCCc3sc(N)c(C#N)c32)n1)[C@@H]1CCCN1C [Example I-6] | 3 | 273 | 595 | 81
14 | C[C@H](Oc1cc(Oc2cncnc2)nc(-c2onc3c2CCC[C@@]32CCCc3sc(N)c(C#N)c32)n1)[C@@H]1CCCN1C [Example I-3] | 1 | 29 | 35 | 14
15 | C[C@H](Oc1cc(Nc2nccs2)nc(-c2noc3c2CCC[C@@]32CCCc3sc(N)c(C#N)c32)n1)[C@@H]1CCCN1C [II-12] | 4 | 308 | 1130 | 594
16 | C[C@H](Oc1cc(Nc2ccccn2)nc(-c2noc3c2CCC[C@@]32CCCc3sc(N)c(C#N)c32)n1)[C@@H]1CCCN1C [II-16] | 2 |  |  | 

More lines, main results first:

Row | IC50 (KRAS (G12C)::SOS1) [nM] | IC50 (SK-CO-1 cells) [nM] | IC50 (LOVO cells) [nM] | SMILES | IC50 (SAS cells) [nM]
17 | 2 | 326 | 35 | COc1c(OCC2(N(C)C)COC2)nc(-c2noc3c2CCC[C@@]32CCCc3sc(N)c(C#N)c32)nc1O[C@@H](C)[C@@H]1CCCN1C [II-25] | 55
18 | 1 | 394 | 202 | C[C@H](Oc1cc(O[C@@H]2CNC2(C)C)nc(-c2noc3c2CCC[C@@]32CCCc3sc(N)c(C#N)c32)n1)[C@@H]1C[C@@H](F)CN1C [II-31] | 402
19 | 4 | 933 | 344 | C[C@H](Oc1cc(O[C@H]2CN(C)C(C)(C)C2)nc(-c2noc3c2CCC[C@@]32CCCc3sc(N)c(C#N)c32)n1)[C@@H]1CCCN1C [II-19] | 297
20 | 6 | 2590 | 3380 | C[C@H]1CN(C)CCCN1c1cc(O[C@@H]2CNC2(C)C)nc(-c2noc3c2CCC[C@@]32CCCc3sc(N)c(C#N)c32)n1 [II-28] | 4450
21 | 3 | 977 | 186 | C[C@H](Oc1cc(OCC2(N(C)C)CC2)nc(-c2noc3c2CCC[C@@]32CCCc3sc(N)c(C#N)c32)n1)[C@@H]1CCCN1C [II-21] | 577
22 | 2 | 133 | 1120 | C[C@H](Oc1cc(Nc2cccnn2)nc(-c2noc3c2CCC[C@@]32CCCc3sc(N)c(C#N)c32)n1)[C@@H]1CCCN1C [II-18] | 171
23 | 2 | 354 | 39 | C[C@H](Oc1cc(OCC2(N(C)C)COC2)nc(-c2noc3c2CCC[C@@]32CCCc3sc(N)c(C#N)c32)n1)[C@@H]1CCCN1C [II-22] | 84
